Earlier results as cited in paper PMC6151383 (Molecules : A Journal of Synthetic Chemistry and Natural …, 2017).

Test system: Staphylococcus aureus, including a methicillin-resistant strain (MRSA), M. tuberculosis and Mycobacterium avium
Details: range over S. aureus; cited from earlier work

O=S(=O)(Nc1ncccn1)c1ccc(N=Cc2cc(Cl)ccc2O)cc1 [Compound 2c, 4-[(5-Chloro-2-hydroxybenzylidene)amino]-N-(pyrimidin-2-yl)benzenesulfonamide]
MIC values: 125 to 250 µM
